# Test system: 889142-216-R-J1-PDC complex spheroid viability
# Assay: Anticancer human tumor 889142-216-R-J1-PDC patient-derived bladder carcinoma cell line growth inhibition [POLQ]
# Settings: for IC50: curve of first compound; for viability, T/C: stronger effect = lower value
# How it was run: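 Patient-derived tumour cells were co-cultured with HUVEC and mesenchymal stem cells as multicellular spheroids at 37 °C. They were treated with POLQ inhibitors (novobiocin, ART-558, RP6685) alone or combined with other agents. Top concentrations were at or near clinical Cmax (otherwise 10 microM; SN-38 at 1 microM), decreasing in half-log steps.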
# 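Also: spheroids exposed to compounds for seven days.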
# 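For viability, T/C in this document: 100% = DMSO vehicle control viability.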
structure (smiles),measurement,setting,value
CC(=O)O[C@H]1C(=O)[C@@]2(C)[C@H]([C@H](OC(=O)c3ccccc3)[C@]3(O)C[C@H](OC(=O)[C@H](O)[C@@H](NC(=O)c4ccccc4)c4ccccc4)C(C)=C1C3(C)C)[C@]1(OC(C)=O)CO[C@@H]1C[C@@H]2O + COC1C(OC(N)=O)C(O)C(Oc2ccc3c(O)c(NC(=O)c4ccc(O)c(CC=C(C)C)c4)c(=O)oc3c2C)OC1(C)C,IC50,second compound 0.0316 µM,< 9.49 nM
same,IC50,second compound 0.1 µM,< 9.49 nM
same,IC50,second compound 0.316 µM,< 9.49 nM
same,IC50,second compound 1 µM,< 9.49 nM
same,IC50,second compound 3.16 µM,< 9.49 nM
same,IC50,second compound 10 µM,< 9.49 nM
same,"viability, T/C","second compound 0.0316 µM, first compound 0.00949 µM",42%
same,"viability, T/C","second compound 0.0316 µM, first compound 0.03 µM",37.3%
same,"viability, T/C","second compound 0.0316 µM, first compound 0.0949 µM",36.2%
same,"viability, T/C","second compound 0.0316 µM, first compound 0.3 µM",35%
same,"viability, T/C","second compound 0.0316 µM, first compound 0.949 µM",40.6%
same,"viability, T/C","second compound 0.0316 µM, first compound 3 µM",43%
same,"viability, T/C","second compound 0.1 µM, first compound 0.00949 µM",40%
same,"viability, T/C","second compound 0.1 µM, first compound 0.03 µM",29.9%
same,"viability, T/C","second compound 0.1 µM, first compound 0.0949 µM",40.6%
same,"viability, T/C","second compound 0.1 µM, first compound 0.3 µM",34.2%
same,"viability, T/C","second compound 0.1 µM, first compound 0.949 µM",37.4%
same,"viability, T/C","second compound 0.1 µM, first compound 3 µM",38.5%
same,"viability, T/C","second compound 0.316 µM, first compound 0.00949 µM",38.3%
same,"viability, T/C","second compound 0.316 µM, first compound 0.03 µM",37.2%
same,"viability, T/C","second compound 0.316 µM, first compound 0.0949 µM",41.3%
same,"viability, T/C","second compound 0.316 µM, first compound 0.3 µM",32.9%
same,"viability, T/C","second compound 0.316 µM, first compound 0.949 µM",34%
same,"viability, T/C","second compound 0.316 µM, first compound 3 µM",37.4%
same,"viability, T/C","second compound 1 µM, first compound 0.00949 µM",39.9%
same,"viability, T/C","second compound 1 µM, first compound 0.03 µM",40%
same,"viability, T/C","second compound 1 µM, first compound 0.0949 µM",43.9%
same,"viability, T/C","second compound 1 µM, first compound 0.3 µM",37.5%
same,"viability, T/C","second compound 1 µM, first compound 0.949 µM",35.3%
same,"viability, T/C","second compound 1 µM, first compound 3 µM",39.7%
same,"viability, T/C","second compound 3.16 µM, first compound 0.00949 µM",39.1%
same,"viability, T/C","second compound 3.16 µM, first compound 0.03 µM",38.1%
same,"viability, T/C","second compound 3.16 µM, first compound 0.0949 µM",39%
same,"viability, T/C","second compound 3.16 µM, first compound 0.3 µM",39.7%
same,"viability, T/C","second compound 3.16 µM, first compound 0.949 µM",41.2%
same,"viability, T/C","second compound 3.16 µM, first compound 3 µM",40.4%
same,"viability, T/C","second compound 10 µM, first compound 0.00949 µM",41.1%
same,"viability, T/C","second compound 10 µM, first compound 0.03 µM",38.1%
same,"viability, T/C","second compound 10 µM, first compound 0.0949 µM",40.4%
same,"viability, T/C","second compound 10 µM, first compound 0.3 µM",45.2%
same,"viability, T/C","second compound 10 µM, first compound 0.949 µM",38.5%
same,"viability, T/C","second compound 10 µM, first compound 3 µM",39.5%

# From PubChem BioAssay AID1963831 (Molecular Pharmacology Branch, DTP, NCI, 2024)
